Test results as given in publication PMC13112672, “The Drp1-CoQ10-Coa6-ETC axis represents a therapeutic potential for working memory impairment caused by neuronal mitochondrial dysfunction” (Translational Neurodegeneration, 2026).

Target: T1, Coa6 (cytochrome c oxidase assembly factor 6) (Mus musculus, UniProt Q8BGD8)
T1 construct: E. coli BL21(DE3); Ni-bead purification (vector His tag, removal not mentioned)
T1 sequence (Q8BGD8 1-79): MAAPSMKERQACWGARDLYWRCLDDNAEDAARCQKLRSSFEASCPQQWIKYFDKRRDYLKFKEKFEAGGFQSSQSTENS
Experiment: surface plasmon resonance (CM5 chip, immobilised Coa6)
Assay type: binding
Conditions: analyte 0.39–25 μM CoQ10; protein amine-coupled, ~12,600 RU

## COC1=C(OC)C(=O)C(C/C=C(\C)CC/C=C(\C)CC/C=C(\C)CC/C=C(\C)CC/C=C(\C)CC/C=C(\C)CC/C=C(\C)CC/C=C(\C)CC/C=C(\C)CCC=C(C)C)=C(C)C1=O [CoQ10]
  Kd: 24 µM
